Cytotoxicity data for 99 compounds are collected here from ChEMBL document CHEMBL3507680, “University of Dundee, Gates Library screen for HepG2 cell viability”.

A short description of this data set: Human HepG2 cell viability assay in 384 well format. It is filed as toxicity, cell-based. Set-up: dose 125 nL, time 70.5 hour; cytotoxicity at 70.5 h: concentration not given beside the values. Conditions: HepG2 cells, read-out: Inhibition.
For `Cn1nnnc1SCc1cc2c(cc1Cl)OCO2`, the cytotoxicity at 70.5 h is -16%.

`CN(Cc1nc(CS(C)(=O)=O)no1)c1ccccc1`: the cytotoxicity at 70.5 h is -12.6%. Then `O=C(C1CCOC1)N1CCN(Cc2cccnc2)c2ncccc2C1` (centres undefined), with -7.36%; and `CN1CCN(Cc2ccccc2CNC(=O)c2ccc(Br)cc2F)CC1`, with -4.3%; and `CCc1n[nH]c(C2CN(Cc3nc(C4CC4)no3)CCO2)n1` (centres undefined), with -3.3%.

Consider `CCS(=O)(=O)N(C)C1CCN(C(=O)c2ccc(C)c(C)c2)CC1`, for which the cytotoxicity at 70.5 h is -8.23%. Then `CN1CCC(N2CCN(C(C(=O)O)c3cccc4c3OCC4)CC2)CC1` (centres undefined), with 2.04%. The same measure for `CC(Cn1cccn1)C(=O)N1CCC(NS(C)(=O)=O)CC1` (centres undefined): -6.23%; for `Cc1cc(C)c(CCNC(=O)NCCCC(N)=O)c(C)c1`: -1.98%; for `FC(F)(F)c1cc(C2CCN(c3cnccn3)CC2)n2ccnc2n1`: -5.4%.

Take `CS(=O)(=O)c1ccc(CNC(=O)N2CCC(C(N)=O)C2)cc1` (centres undefined): the cytotoxicity at 70.5 h was found to be 30%. Then `CN(C)CC1CSCCCN1S(=O)(=O)Cc1cccc(F)c1` (centres undefined), with -3.38%. The same measure for `CC(C)c1nc2n(n1)CC(NCc1nc(-c3cccnc3)no1)CC2` (centres undefined): 21.9%; for `c1snnc1CN1C[C@H]2CCC[C@@H](CN3CCOCC3)[C@H]2C1`: -7.77%; for `Cc1cc(-c2cnn(CCNC(=O)c3snnc3C)c2C2CC2)on1`: -2.4%. The same measure for `CC(=O)NCc1nn(C)c2c1CN(Cc1ccsc1)C2`: -6.78%; for `O=C(CCOc1ccccc1F)NC1CCCN(c2ccccn2)C1` (centres undefined): -5.44%. `COc1cc2c(cc1OC)CN(C(C(=O)O)c1c(C)nn(C)c1C)CC2` (centres undefined): the cytotoxicity at 70.5 h was -6.71%. On to `CCc1csc(C2CCCN(C(=O)c3ccnc(N(C)C)c3)C2)n1` (centres undefined), for which the cytotoxicity at 70.5 h worked out at 19.9%. The same measure for `N[C@H]1c2ccccc2C[C@@H]1NC(=O)C1CCN(Cc2ccco2)CC1`: -11.4%; for `CN1CCOC(CNCc2nc(-c3cccnc3)no2)C1` (centres undefined): -6.13%; for `O=C(c1ccco1)N1CC[C@@H]2O[C@H](COCC3CCOCC3)CC[C@@H]21`: 4.34%. In the case of `CCSc1ccccc1C(=O)NCCN1CCC(c2cccs2)CC1`, the cytotoxicity at 70.5 h came to 4.38%.

For the compound `O=C(Nc1ccc2c(c1)C(=O)NC2=O)c1ccc(Cl)s1`, the cytotoxicity at 70.5 h was -10.9%. The same measure for `Cc1ccc(CN(C(=O)NCC(c2cccs2)N(C)C)C2CC2)o1` (centres undefined): -5.44%; for `CC(C)C1=NOC2(CCN(C(=O)C3CCCC3)CC2)C1`: -11.9%; for `CCc1ncc(C(=O)c2ccc(OC)cc2)n1C`: 17.9%.

For `COC[C@]1(O)CCN(Cc2c[nH]c(CC3CCCC3)n2)CC1(C)C`, the cytotoxicity at 70.5 h came to 30.4%. Then `CN(CCc1ccccc1)Cc1nc(Cc2cccc(F)c2)no1`, with 0.246%; and `CN(Cc1n[nH]c(=O)n1Cc1ccco1)S(C)(=O)=O`, with 2.27%. The same measure for `COc1ccc(-c2cn3c(n2)CO[C@@H](CNCc2ccccn2)C3)cc1`: -0.00582%; for `CCc1cnc(N2C[C@H]3C[C@H](C(=O)NCC(C)C)[C@@H](C2)O3)nc1`: 2.56%. The same measure for `Cc1ccc(CN2CCN(c3cc(NCCO)ncn3)CC2CCO)o1` (centres undefined): -5.58%; for `CCc1nc(NCC2CCCN(C(=O)C3CC3)C2)c2cnn(C)c2n1` (centres undefined): -16.2%; for `CC(C)c1ccc(OCCC(=O)N(C)C)cc1`: 12.7%. As for `NC(=O)C1CN(Cc2c[nH]cn2)CCN(C2CCOCC2)C1` (centres undefined), the cytotoxicity at 70.5 h was -9.19%. Then `Cn1ncc2c(N3CCC3)nc(-c3ccncc3)nc21`, with 4.72%; and `O=C(Nc1cccc(F)c1)C1CCCN1c1nccs1` (centres undefined), with 1.52%; and `O=C(COCc1ccccc1)N1CCCC(n2cncn2)C1` (centres undefined), with -20.7%.

Take `CCOC(=O)C1CN(S(=O)(=O)C2CC2)Cc2ncn(CC)c21` (centres undefined): the cytotoxicity at 70.5 h is 11%. Then `CCC(C)NC(=O)N1CCCn2cnc(CO)c2C1` (centres undefined), with -7.63%.

In the case of `N[C@H]1CN(C(=O)c2ccc3[nH]c(=O)c(=O)[nH]c3c2)C[C@@H]1c1ccccc1`, the cytotoxicity at 70.5 h was -16.1%. Then `CC(CN1CCCC1=O)NC(=O)c1ccc(C(F)(F)F)[nH]c1=O` (centres undefined), with -74.6%; and `O=S(=O)(CCCN1CCOC(Cn2cccn2)C1)c1ccccc1` (centres undefined), with 2.06%. Then `CNC(=O)c1cc2c(nc1NCC(C)C)CCN(c1ccncn1)CC2`, with -0.746%; and `Cc1nc(CN2CCOC(CNc3cccnn3)C2)cs1` (centres undefined), with 2.31%. The same measure for `CCc1ccc(C(=O)N2CCCC(c3nn[nH]n3)C2)cc1` (centres undefined): -3.67%.

For `COCCC1COC2(CCN(C(=O)C3CCCCC3)CC2)C1` (centres undefined), the cytotoxicity at 70.5 h was -5.85%. The same measure for `Cn1cc(NC(=O)CNC(=O)N2CCN(c3cccc(Cl)c3)CC2)cn1`: -4.74%. For the compound `CCOCC(=O)N(Cc1ccco1)c1ccc(OC)c(F)c1`, the cytotoxicity at 70.5 h is -5.82%.

As for `CC(=O)Nc1ncc(S(=O)(=O)N2CCCC(C)C2)s1` (centres undefined), the cytotoxicity at 70.5 h is -3.6%. Regarding `CC(c1cccc(-c2nccn2CCc2ccccn2)c1)N(C)C` (centres undefined), the cytotoxicity at 70.5 h is -7.37%.

For the compound `O=c1[nH]c2cc(S(=O)(=O)N3CCC(c4ccsc4)CC3)ccc2o1`, the cytotoxicity at 70.5 h was -5%. As for `CCN(Cc1cnn(CC)c1)C(=O)Cn1c(=O)c(C)nc2ccccc21`, the cytotoxicity at 70.5 h is -17.7%. Then `CN1CCC(NC(=O)Nc2cnn(-c3ccccc3Cl)c2)C1=O` (centres undefined), with -7.73%; and `COC(=O)c1cccc(C(=O)N2CCN(c3cc(C)ccc3C)CC2)n1`, with 0.723%; and `Cc1ccc([C@@H]2CN(S(=O)(=O)c3cc(C)ccc3F)C[C@H]2N(C)C)cc1`, with -8.32%.

With `Cc1ncnc2c1CCN(CC(=O)N(C)C)CC2`, the cytotoxicity at 70.5 h is -5.19%. Turning to `Oc1ccc(Cl)cc1CNCc1ccccc1C(F)(F)F`, the cytotoxicity at 70.5 h was -2.09%. The same measure for `O=C(c1cccnc1)N1C[C@@H]2CC[C@H](C1)N(Cc1ncc[nH]1)C2`: -7.7%; for `CCOc1ccc(SCCS(=O)(=O)CC)cc1`: -6.32%; for `Cc1ccc(N(C)CC(O)COCc2ccccc2)c(C)c1` (centres undefined): 12.5%. Then `Cc1cccc(COC[C@@H]2CC[C@H]3[C@H](CCN3C(=O)CC3CC3)O2)n1`, with -6.33%; and `CN1CCc2c(C#N)c(NCC3CCCO3)n3cnnc3c2C1` (centres undefined), with -5.45%.

As for `CC1(C)CCN(S(=O)(=O)N2CCCC(c3cccc(C(=O)O)c3)C2)CC1` (centres undefined), the cytotoxicity at 70.5 h is -10.5%. The same measure for `CC(=O)NC1CCCN(Cc2ccc(OCc3ccccn3)cc2)C1` (centres undefined): -6.3%; for `Cc1cc(C)c(Cn2cncn2)cc1CN1CCC(CN)C1` (centres undefined): -0.164%. For `O=C(c1ccco1)N1CCCC2(C1)CN(c1nncs1)CCO2` (centres undefined), the cytotoxicity at 70.5 h is -5.17%. Then `COC(=O)CCC(=O)N1CCc2[nH]nc(-c3ccc4c(c3)OCO4)c2C1`, with -3.99%; and `Cn1c(C(=O)N(CC(N)=O)C2CCCC2)cc(Cl)c1Cl`, with -10.6%; and `CC(Cc1c(F)cccc1F)NC(=O)CSCC(N)=O` (centres undefined), with 12.1%. For `c1ccc(Cn2cc3c(n2)C(COCC2CC2)OCC3)nc1` (centres undefined), the cytotoxicity at 70.5 h worked out at 8.53%. The same measure for `COC(=O)c1cc(CN2CCC(c3noc(C)n3)CC2)c(C)s1`: 2.05%; for `CN(CCO)C1CCN(c2ncc3c(n2)CCN3c2ccccc2)CC1`: -3%. The same measure for `CCc1ncc2c(n1)CN(CCCc1nc3ccccc3o1)CC2`: 0.768%. Then `CC(C)(C)C(=O)NS(=O)(=O)c1ccc(C#N)cc1C(F)(F)F`, with -14.8%.

In the case of `CC1=C(C(=O)N(C)Cc2n[nH]c3c2CCCCC3)C(C)NC(=O)N1` (centres undefined), the cytotoxicity at 70.5 h is 31%. With `O=S(=O)(NC1=NCN(CCc2ccccc2)CN1)c1ccc(F)cc1`, the cytotoxicity at 70.5 h is -27.6%. The same measure for `Cc1oncc1C(=O)N1CC2CC1(C(=O)N1CCCC1)C2`: 8.06%. As to `CN(Cc1cccs1)C(=O)c1ccc(=O)n(C)c1`, the cytotoxicity at 70.5 h was -5.37%. Then `CCC(c1nc(C(C)C)nn1-c1ccncc1C)n1cccn1` (centres undefined), with -9.34%; and `CCCc1nnc(NC2CCN(Cc3ccc(F)c(F)c3)CC2)o1`, with -6.56%. Then `Cc1cc(C(=O)NC2CCc3nc(C)cn3C2)[nH]n1` (centres undefined), with -5.51%; and `CS(=O)(=O)c1cccc(C(=O)NCCCN2CCc3ccccc3C2)c1`, with 19.1%; and `O=c1[nH]c2c(c(=O)n1C1CCCCC1)CCC2Nc1ccccc1Cl` (centres undefined), with 21.6%.

As for `O=C(N1CCOCC1)[C@@]12CCO[C@@H]1CCN(CC1CCC1)C2`, the cytotoxicity at 70.5 h was -20.9%.

For `CC1COCCN1Cc1nc(C(C)(C)C)no1` (centres undefined), the cytotoxicity at 70.5 h was -6.43%. Then `Cc1cccc(CN2CCC23CCCNC3)n1` (centres undefined), with -9.59%; and `Cc1cccc(C)c1OC1CN(C(=O)C2CCCN(C(=O)N(C)C)C2)C1` (centres undefined), with -9.46%; and `O=C(Cc1cccc2cccnc12)N1CCCN(c2cccnn2)CC1`, with -11%. The same measure for `O=C(C1CCOCC1)N1CCCC1c1cncc(CN2CCCC2)n1` (centres undefined): -0.0308%; for `CNC(=O)C(C)CN(C)C(=O)Nc1cc(F)cc(Br)c1` (centres undefined): 1.41%. Then `CNc1nccnc1C1CN(Cc2ccc(OCC(=O)O)cc2)CCO1` (centres undefined), with -5.37%. For the compound `Clc1ccccc1Cn1cc(CNC2CCc3ncnn3C2)cn1` (centres undefined), the cytotoxicity at 70.5 h was -0.86%. Regarding `CCc1ncc2c(n1)CN(c1cc(NCCO)nc(N)n1)C2`, the cytotoxicity at 70.5 h was -3.48%.

In the case of `CC(C)c1nnc(CNc2nc(-c3cccnc3)nc3c2CCC3)n1C`, the cytotoxicity at 70.5 h is -1.97%. For the compound `Cc1cc(CN2CCCC2)cc(Oc2nc(C)cnc2C)c1`, the cytotoxicity at 70.5 h is -5.62%. The same measure for `Cn1cnc2cc(CCC(=O)Nc3n[nH]c(C4CCCO4)n3)ccc21` (centres undefined): 1.89%. For `Cc1n[nH]c(C)c1CNC(=O)CSCc1ccccc1Cl`, the cytotoxicity at 70.5 h is -0.888%.
